Earlier results as cited in article PMC12181400, “Leveraging viral genome sequences and machine learning models for identification of potentially selective antiviral agents” (Communications Chemistry, 2025).
Where a name gives a salt, the structure may show the parent alone. Read-outs that look alike come from different tables or passages of the source.

Assays:
Details in all cases: cited from earlier work
[1] = system: cell viability (tox21-are-bla-p1)
[2] = system: cell viability (tox21-ap1-agonist-p1)
[3] = system: cell viability (tox21-ar-mda-kb2-luc-antagonist-p2)
[4] = system: cell viability (tox21-car-antagonist-p1)
[5] = system: cell viability (tox21-car-agonist-p1)
[6] = system: cell viability (tox21-ar-mda-kb2-luc-agonist-p3)
[7] = curve rank −9 to 9, 0 = inactive, ref NCATS Tox21 public data browser

SMILES | tox21-are-bla-p1-viability (curve rank) [1] | tox21-ap1-agonist-p1-viability (curve rank) [2] | tox21-ar-mda-kb2-luc-antagonist-p2-viability (curve rank) [3] | tox21-car-antagonist-p1-viability (curve rank) [4] | tox21-car-agonist-p1-viability (curve rank) [5] | tox21-ar-mda-kb2-luc-agonist-p3-viability (curve rank) [6] | tox21-car-antagonist-p1-viability (curve rank) [4, 7] | tox21-are-bla-p1-viability (curve rank) [1, 7] | tox21-ap1-agonist-p1-viability (curve rank) [2, 7] | tox21-ar-mda-kb2-luc-antagonist-p2-viability (curve rank) [3, 7] | tox21-car-agonist-p1-viability (curve rank) [5, 7] | tox21-ar-mda-kb2-luc-agonist-p3-viability (curve rank) [6, 7]
CC(=O)N[C@@H](CC(C)C)C(=O)O [Acetyl-L-leucine] | 0 | 0 | 0 | 0 | 0 | 0 | – | – | – | – | – | –
CCC(C)(CN(C)C)OC(=O)c1ccccc1.Cl (centres unmarked) [Amylocaine hydrochloride] | – | – | – | – | – | – | 0 | – | – | – | – | –
CCC1(C2=NCCN2)Cc2ccccc2O1 (centres unmarked) [Efaroxan] | – | – | – | – | – | – | 0 | 0 | 0 | 0 | 0 | 0
Cc1scc2c1N(C(=O)CN1CCN(C)CC1)c1ccccc1NC2=O [Telenzepine] | 0 | 0 | 0 | 0 | 0 | 0 | – | – | – | – | – | –
CC(=O)CCCCn1c(=O)c2c(ncn2C)n(C)c1=O [Pentoxifylline] | 0 | 0 | 0 | 0 | 0 | 0 | – | – | – | – | – | –
CC1=C2[C@H]3OC(=O)[C@@H](C)[C@@H]3CC[C@@]2(C)C=CC1=O [alpha-Santonin] | – | – | – | – | – | – | 0 | 0 | 0 | 0 | 0 | 0
CCOP(=S)(OCC)Oc1cc(C)nc(C(C)C)n1 [Diazinon] | – | – | – | – | – | – | 0 | 0 | 0 | 0 | 0 | 0
Nc1c2c(nc3ccccc13)CCCC2O.O=C(O)/C=C\C(=O)O (centres unmarked) [Hydroxytacrine maleate] | – | – | – | – | – | – | 0 | 0 | 0 | 0 | 0 | 0
CCCCCC(C)N.O=S(=O)(O)O (centres unmarked) [2-Aminoheptane sulfate] | – | – | – | – | – | – | 0 | 0 | 0 | 0 | 0 | 0
CN1Cc2c(N)cccc2C(c2ccccc2)C1 (centres unmarked) [Nomifensine maleate] | 0 | 0 | 0 | 0 | 0 | 0 | – | – | – | – | – | –
NC(Cc1ccc(Cl)cc1)C(=O)O (centres unmarked) [Fenclonine] | 0 | 0 | 0 | 0 | 0 | 0 | – | – | – | – | – | –
Nc1ccc(S(=O)(=O)Nc2ccnn2-c2ccccc2)cc1 [Sulfaphenazole] | 0 | 0 | 0 | 0 | 0 | 0 | – | – | – | – | – | –
Cc1ccccc1OCC(O)CO (centres unmarked) [Mephenesin] | 0 | 0 | 0 | 0 | 0 | 0 | – | – | – | – | – | –
Cc1nc(C)c(Cl)c(O)c1Cl [Clopidol] | – | – | – | – | – | – | 0 | 0 | -0.67 | 0 | 0 | 0
CCC1(c2ccccc2)C(=O)NCNC1=O [Primidone] | 0 | 0 | 0 | 0 | 0 | 0 | – | – | – | – | – | –
CN1C(=O)CCS(=O)(=O)C1c1ccc(Cl)cc1 (centres unmarked) [Chlormezanone] | – | – | – | – | – | – | 0 | 0 | 0 | 0 | 0 | 0
COc1cc(NS(=O)(=O)c2ccc(N)cc2)nc(OC)n1 [Sulfadimethoxine] | 0 | 0 | 0 | 0 | 0 | 0 | – | – | – | – | – | –
OCC(O)CN1CCN(c2ccccc2)CC1 (centres unmarked) [Dropropizine] | – | – | – | – | – | – | 0 | 0 | 0 | 0 | 0 | 0
CO[C@@]1(NC(=O)CSCC#N)C(=O)N2C(C(=O)O)=C(CSc3nnnn3C)CS[C@@H]21 [Cefmetazole sodium] | 0 | -0.67 | 0 | 0 | 0 | 0 | – | – | – | – | – | –
CC(C)(C(=O)c1cccnc1)c1cccnc1 [Metyrapone] | 0 | 0 | 0 | 0 | 0 | 0 | – | – | – | – | – | –
NC(=O)N1c2ccccc2C=Cc2ccccc21 [Carbamazepine] | 0 | 0 | 0 | 0 | 0 | 0 | – | – | – | – | – | –
FC(F)(F)c1ccccc1-n1ccnc1 [1-[2-(Trifluoromethyl)phenyl]-1H-imidazole] | – | – | – | – | – | – | 0 | 0 | 0 | 0 | 0 | 0
CC(Cc1ccccc1)(NC(=O)CN)c1ccccc1 (centres unmarked) [Remacemide hydrochloride] | – | – | – | – | – | – | 0 | 0 | 0 | 0 | 0 | 0
CCN(Cc1ccncc1)C(=O)C(CO)c1ccccc1 (centres unmarked) [Tropicamide] | – | – | – | – | – | – | 0 | 0 | 0 | – | 0 | –
